Measured values taken from BindingDB's records for PubMed 38503166 (University of Paris).
Numbered stars: 1 amine (or outer) side, 2 acyl side, 3 side chain; on linkers, the order of the positions; unused ones are H or OH. Square brackets hold non-standard residues; d marks the D form. Peptide text beside a SMILES is read from it. * marks the point of attachment. Ala(1H-tetrazol-5-yl) = N[C@@H](Cc1nnn[nH]1)C(=O)O; Gly(cPent) = N[C@H](C(=O)O)C1CCCC1; X1 = C[C@H](N[*:1])C(=O)C(=O)[*:2]; Chg = N[C@H](C(=O)O)C1CCCCC1; OAll = C=CCO*

Biological target: Subtilisin-like protease 1 (Plasmodium vivax)
Test: Inhibition of Plasmodium vivax SUB1 catalytic domain

SMILES	IC50 [nM]
CC(=O)N[C@H](C(=O)N[C@H](C(=O)N[C@@H](C)C(=O)N[C@@H](C)C(=O)C(=O)N[C@@H](CC(=O)O)C(N)=O)[C@@H](C)O)C1CCCC1 (Ac-[Gly(cPent)]TA[X1]D-NH2)	150
C=CCOC(=O)CC[C@H](NC(=O)[C@H](Cc1nnn[nH]1)NC(=O)C(=O)[C@H](C)NC(=O)[C@H](C)NC(=O)[C@@H](NC(=O)[C@@H](NC(C)=O)[C@@H](C)CC)[C@@H](C)O)C(N)=O (Ac-ITA[X1][Ala(1H-tetrazol-5-yl)]E(OAll)-NH2)	2220

The next lines start with the values.

IC50 [nM]	SMILES
100	C=CCOC(=O)CC[C@H](NC(=O)[C@H](CC(=O)O)NC(=O)C(=O)[C@H](C)NC(=O)[C@H](C)NC(=O)[C@@H](NC(=O)[C@@H](NC(C)=O)[C@@H](C)CC)[C@@H](C)O)C(N)=O (Ac-ITA[X1]DE(OAll)-NH2)
70	C=CCOC(=O)CC[C@H](NC(=O)[C@H](CC(=O)O)NC(=O)C(=O)[C@H](C)NC(=O)[C@H](C)NC(=O)[C@@H](NC(=O)[C@@H](NC(C)=O)C1CCCC1)[C@@H](C)O)C(N)=O
150	C=CCOC(=O)CC[C@H](NC(=O)[C@H](CC(=O)O)NC(=O)C(=O)[C@H](C)NC(=O)[C@H](C)NC(=O)[C@@H](NC(=O)[C@@H](NC(C)=O)C1CCCCC1)[C@@H](C)O)C(N)=O (Ac-[Chg]TA[X1]DE(OAll)-NH2)
